Measurements from patent US20150313913A1, “POSITIVE ALLOSTERIC MODULATORS OF THE GABA-A RECEPTOR IN THE TREATMENT OF AUTISM” (UNIVERSITY OF WASHINGTON THROUGH ITS CENTER FOR …, priority 2013, published 2015).
Entries after “also recorded” stand apart in the source; their conditions may differ.

Legend:
Scn1a+/− mice = test: Open field and elevated plus maze tests (sedation, anxiolysis); format: in vivo
Experimental: Open field test was performed as previously described^23. Briefly, each individual mouse was placed near the wall-side of 38×42 cm open-field arena, and the movement of the mouse was recorded by USB webcam (LIFECAM™ HD-6000, MICROSOFT™) and PC-based video capture software (WINAVI VIDEO CAPTURE™, ZJMEDIA DIGITAL TECHNOLOGY™) for 10 min. The recorded video file was further analyzed by off-line video tracking software (ETHOVISION™ XT 7.0, NOLDUS TECHNOLOGY™). Total distance traveled and time in center (15×15 cm imaginary square) were measured. The open field arena was cleaned with 70% ethanol and wiped with paper towels between each trial.
The elevated plus maze is a plus-shaped maze that is elevated 60 cm above the floor. It consists of two closed arms surrounded by 15-cm high transparent walls and two open arms (5×25 cm) with a small ledge along the side of two open arms to prevent falling from the maze during the test. Each mouse was placed in the center (5×5 cm) of the maze facing one of the closed arms. During the 10-min test period, the movement of the mouse was recorded by a USB webcam (LIFECAM™ HD-6000, MICROSOFT™) and PC-based video capture software (WINAVI VIDEO CAPTURE™, ZJ MEDIA DIGITAL TECHNOLOGY™). The recorded video file was further analyzed by off-line video tracking software (ETHOVISION™ XT 7.0). Times spent in closed arms, center, and open arms were measured. The maze was cleaned with 70% ethanol and wiped with paper towels between each trial.
Oral administration is specifically contemplated for the methods described herein, and is well known for both benzodiazepines and non-BDZ GABA-A enhancers as described herein.

BTBR mice = test: Open field test; format: in vivo
Experimental: (§1) Open field test was performed as previously described (Han et al., 2012). 50×50 cm square open field arena with non-transparent white Plexiglas was used in this study. During the 10 min of trial, total distance moved, circling behavior (a complete 360-degree turn of nose angle with respect to the body center) and time in center (20×20 cm imaginary square) were measured by the video-tracking software (EthoVision XT 8.5, Noldus Technology).

C57BL/6J mice = test: Open field test; format: in vivo
Experimental: as §1

[1] = cited from earlier work
[2] = test system: GABA-A α2, α3 and α5 subtypes; conditions: cited from earlier work

## O=C1CN=C(c2ccccc2Cl)c2cc([N+](=O)[O-])ccc2N1 [Clonazepam]
Scn1a+/− mice; 0.0625 mg/kg
  anxiolytic effect in elevated plus maze: did not elicit anxiolytic effects
  anxiolytic effect in open field test: not observed
  locomotor activity in open field test: not changed
Scn1a+/− mice; both wild-type and Scn1a+/− mice, dose series
  sedation: dose-dependent sedation
Scn1a+/− mice; open field and elevated plus maze, Scn1a+/− mice
  maximal intraperitoneal dose that did not cause significant sedation or anxiolytic effect: 0.0625 mg/kg
BTBR mice; 0.05 mg/kg
  visits to center of open field (indicator of abnormally low anxiety): changed toward the values for C57BL/6J mice
BTBR mice; 0.05 mg/kg daily for 14 days
  locomotor activity under chronic low dose: did not cause any increase in locomotor activity; also recorded: did not have any effect
BTBR mice; 1 mg/kg (high dose) for 14 days
  tolerance to sedative effect (locomotor activity Day 14 vs Day 1): significantly increased locomotor activity; also recorded: caused significant tolerance
BTBR mice; 1 mg/kg for 14 days
  locomotor activity on Day 14 compared to Day 1: 222±42%
BTBR mice; single injection 0.05 mg/kg
  hyperactivity, total distance moved: significantly reduced
  stereotyped circling behavior, number of 360° rotations: significantly reduced
C57BL/6J mice; low doses of clonazepam
  anxiety-like behavior: avoidance of the center of an open field: little effect
C57BL/6J mice; low-dose clonazepam
  hyperactivity (total distance moved) and circling behavior: unaffected
[1]; in vivo
  half-life: 30 to 40 h
[1]; mouse washout experiment
  half-life in vivo: 12 h

## Cn1ncnc1COc1nn2c(-c3cc(F)ccc3F)nnc2cc1C(C)(C)C [L-838,417]
[2]
  action at α2, α3 and α5 subtypes: partial agonist
